Results reported in article PMC7938888, “Antidepressant drugs act by directly binding to TRKB neurotrophin receptors” (Cell, 2021).
Values joined by “and” are separate entries in the source; they are usually repeats but may differ in a detail not shown here. Equal entries are not always repeated. Where two headings read alike, the source gives them in different places.

Columns and labels:
mice [1] = experiment: Forced swimming test (FST); type: in vivo, mouse; settings: FLX 15 mg/kg for 21 days, KET 10 mg/kg i.p. 2 h before
Method: Forced swimming test: animals (adult male and female mice, 18-22 weeks old) were placed in 5l glass beaker cylinders (19cm diameter, with 20cm water column) for 6min. The immobility was assessed in the last 4min of the session ([Diniz et al., 2018]). The water was changed between each test. After swimming, animals were towel-dried and kept in a warmed cage before returning to their home cages. Test was videotaped and analyzed by a trained observer blind to treatment.

mice [2] = experiment: Object location memory (OLM) test; type: in vivo, mouse
Method: Object-location memory (OLM): this test was performed in a square arena (28cm side) with opaque walls containing cues (black stripes or spots). The adult male and female mice (18-22 weeks old) were placed for 3 consecutive days (15min per session) in the arena with two identical objects (table tennis balls glued to caps of 50ml Falcon tubes) in the same position throughout the sessions (pretest).

[3] = prefrontal cortex, individual mice; for FLX uM**: fluoxetine MW 309g/mol
surface TRKB [4] = experiment: Surface TRKB ELISA in primary cortical neurons; type: cell-based, rat; settings: primary cortical neurons
Method: (§1) The surface levels of TRKB were also determined by ELISA ([Zheng et al., 2008]). Briefly, the MG87.TRKB cells or primary cortical cells from rat or mouse embryos, cultivated in clear bottom 96-well plates (ViewPlate 96, Perkin Elmer), were washed with ice-cold PBS and fixed with 100μl of 4% PFA per well. After washing with PBS and blocking with PBS containing 5% nonfat dry milk and 5% BSA, the samples were incubated with primary anti-TRKB antibody (R&D Systems, #AF1494, 1:1000 in blocking buffer) or anti-GluR1 subunit of AMPA receptors (CST, #8850, 1:2000 in blocking buffer) ON at 4°C. Following washing, the samples were incubated with HRP-conjugated anti-goat or anti-rabbit IgG (1:5000 in blocking buffer) for 1h at RT. The cells were washed 4x with 200μl of PBS for 10 min each. Finally, the chemiluminescent signal generated by reaction with ECL was analyzed in a plate reader.

TRKB.T1ΔEC = experiment: Cell-free ligand binding assay, TRKB deletion construct; settings: construct with TMD and short juxtamembrane sequences only
[5] = test system: TRKB autophosphorylation (TRKB:pY); experiment: TRKB:pY ELISA in cultured cortical cells; type: cell-based, rat; settings: for effect on TRKB phosphorylation (pTRKB) by BDNF: BDNF 10 ng/mL, primary cortical neurons
Method: (§2) The TRKB:pY (phosphorylated TRKB), TRKB:PLC-γ1, PLC-γ1:pTRKB.Y816 interactions and were determined by ELISA, based on the general method described in literature ([Antila et al., 2014]; [Fred et al., 2019]), with minor adjustments. Briefly, white 96-well plates (OptiPlate 96F-HB, Perkin Elmer) were coated with capturing anti-TRKB or PLC-γ1 antibody (1:1000) in carbonate buffer (pH = 9.8) overnight (ON) at 4°C. Following a blocking step with 2%BSA in TBS-T (2 h, RT), samples were incubated ON at 4°C. The incubation with antibody against pTRKB.Y816, PLC-γ1 or pY (1:2000, ON, 4°C) was followed by HRP-conjugated anti-Rb IgG (1:5000, 2h, RT) or HRP-conjugated streptavidin (1:10000, 2h, RT). Finally, the chemiluminescent signal generated by the reaction with ECL was analyzed in a plate reader (Varioskan Flash, Thermo Scientific).

TRKB:PLC-γ1 interaction = TRKB:PLC-γ1 interaction ELISA in MG87 cells expressing TRKB; type: cell-based, mouse; settings: cholesterol 20 μM/15 min
Method: The cell line NIH 3T3 (mouse fibroblasts) stably transfected to express TRKB or TRKA (MG87.TRKB or MG87.TRKA, respectively) were used for in vitro assays ([Antila et al., 2014]), N2A and HEK293T cells were used to overexpress GFP-tagged TRKB for binding assays. The cells were maintained at 5% CO2, 37°C in Dulbecco’s Modified Eagle’s Medium (DMEM, containing 10% fetal calf serum, 1% penicillin/streptomycin, 1% L-glutamine, and, in the case of MG87.TRKB cells, with […] of G418). The cell lines used in the present study were not authenticated or genotyped for sex.
as §2, with “The incubation with antibody against pTRKB.Y816, PLC-γ1 or pY (1:2000, ON, 4°C) was followed by HRP-conjugated anti-Rb IgG (1:5000, 2h, RT) or HRP-conjugated streptavidin (1:10000, 2h, RT).” left out

E18 cortical cells = experiment: Cell viability (CellTiterGlo) of cortical cells; type: cell-based, rat; settings: pravastatin 2 μM/5 days; CHOL 20 μM or BDNF 10 ng/ml, 5 days
Method: The cell viability assay was performed using CellTiterGlo (#G7571; Promega) according to manufacturer’s instructions. Briefly, equal amounts of medium and the mixture of regents A and B were added to the E18 cortical cells (DIV8) cultivated in clear bottom 96-well plates and incubated for 40min. The luminescence was analyzed in a plate reader.

TRKA:PLC-γ1 coupling = experiment: TRKA:PLC-γ1 interaction ELISA in MG87 cells expressing TRKA; type: cell-based, mouse
surface TRKB [6] = experiment: Surface TRKB ELISA in MG87.TRKB cells; type: cell-based, mouse; settings: cholesterol 20 μM/15 min
Method: as §1

CNC1(c2ccccc2Cl)CCCCC1=O (centres unmarked) [KET, ketamine]
immobility in the FST (mice [1]; TRKB.Y433F mice): ineffective
immobility in the FST (mice [1]; wild-type mice): significantly reduced immobility

CNCCC(Oc1ccc(C(F)(F)F)cc1)c1ccccc1 (centres unmarked) [FLX, fluoxetine]
immobility in the FST (mice [1]; TRKB.Y433F mice): ineffective
immobility in the FST (mice [1]; wild-type mice): significantly reduced immobility
response in OLM test (mice [2]; BDNF haploinsufficient mice): lack of response
long-term memory in OLM test (mice [2]; TRKB.wt mice, FLX 15 mg/kg/day for 7 days): facilitated long-term memory
response in OLM test (mice [2]; animals co-treated with pravastatin): lack of response
response in OLM test (mice [2]; serotonin transporter knockout (5HTT.ko) mice): responded to FLX treatment normally
FLX ([3]; genotype het, 15mg/kg in drinking water 21 days, 15 mg/kg): 1.368 µg/mL and 0.379 µg/mL and 2.739 µg/mL
FLX ([3]; genotype het, brain density 1.045g/ml): 9.69 µg/mL and 6.28 µg/mL and 21.21 µg/mL
FLX uM** ([3]; genotype het): 31.36 µM and 20.34 µM and 68.63 µM
FLX ug/g wet tissue ([3]; genotype het): 9.273 ug/g wet tissue and 6.013 ug/g wet tissue and 20.292 ug/g wet tissue
FLX ([3]; genotype wt, 15mg/kg in drinking water 21 days, 15 mg/kg): 1.575 µg/mL and 1.642 µg/mL and 1.024 µg/mL and 1.497 µg/mL and 0.393 µg/mL
FLX ([3]; genotype wt, brain density 1.045g/ml): 4.03 µg/mL and 11.14 µg/mL and 6.93 µg/mL and 10.29 µg/mL and 9.31 µg/mL
FLX uM** ([3]; genotype wt): 13.04 µM and 36.06 µM and 22.42 µM and 33.30 µM and 30.13 µM
FLX ug/g wet tissue ([3]; genotype wt): 3.856 ug/g wet tissue and 10.662 ug/g wet tissue and 6.629 ug/g wet tissue and 9.846 ug/g wet tissue and 8.908 ug/g wet tissue
surface expression of TRKB (surface TRKB [4]): increased the surface expression of TRKB
binding to TRKB.T1ΔEC (TRKB.T1ΔEC): robust binding
rescue of BDNF-induced pTRKB response under high CHOL ([5]; cholesterol 50 μM, drug 10 μM 15 min, BDNF 10 ng/ml 15 min): partially rescued

CC(C)CCC[C@@H](C)[C@H]1CC[C@H]2[C@@H]3CC=C4C[C@@H](O)CC[C@]4(C)[C@H]3CC[C@]12C [CHOL, cholesterol]
interaction of TRKB with PLC-γ1 (TRKB:PLC-γ1 interaction): promoted the interaction of TRKB
rescue of pravastatin-reduced neuronal survival (E18 cortical cells): rescued
cholesterol-induced TRKA:PLC-γ1 coupling (TRKA:PLC-γ1 coupling): Lack of effect
effect on TRKB phosphorylation (pTRKB) by BDNF ([5]; CHOL 20 μM): enhanced TRKB phosphorylation
effect on TRKB phosphorylation (pTRKB) by BDNF ([5]; CHOL 50–100 μM): suppressed the effects of BDNF
cell surface translocation of TRKB (surface TRKB [6]): increased cell surface translocation of TRKB

B1: BDNF: brain-derived neurotrophic factor, TRKB ligand (protein, UniProt P23560 19-247, looked up)
Neurotrophic factor BDNF …: APMKEANIRGQGGLAYPGVRTHGTLESVNGPKAGSRGLTSLADTFEHVIEELLDEDQKVRPNEENNKDADLYTSRVMLSSQVPLEPPLLFLLEEYKNYLDAANMSMRVRRHSDPARRGELSVCDSISEWVTAADKKTAVDMSGGTVTVLEKVPVSKGQLKQYFYETKCNPMGYTKEGCRGIDKRHWNSQCRTTQSYVRALTMDSKKRIGWRFIRIDTSCVCTLTIKRGR
rescue of pravastatin-reduced neuronal survival (E18 cortical cells): not by BDNF
